Test results taken from patent US20110287547A1, “NUCLEIC ACID DELIVERY COMPOSITIONS AND METHODS” (priority 2008, published 2011).
≈ marks a conversion by molar mass, not a printed value. Like-named read-outs stand apart in the source and are kept apart here. Where a SMILES comes first, the peptide text is derived from it.

What was measured:
[1] = Cytotoxicity Assay (MTS Assay), Example 1 and CPPs; assay type: cell-based, human; details: human
Method: (§1) Cell Culture. Culturing of human epithelial lung cell line A549 was performed according to the protocol provided by the American Type Culture Collection. A549 was grown in F-12K supplemented with 10% v/v FBS and 1% v/v Penicillin/streptomycin at 37° C. in a humidified air atmosphere containing 5% CO2.
(§2) Cytotoxicity Assay (MTS Assay). […] A549 cells were grown as described in the transfection experiments. Cells were treated with the samples for approximately 24 hours. […] The cells were incubated for 3 hours at 37° C. in the 5% CO2 incubator. The absorbance of each well was then measured at 490 nm using a microtiter plate reader (SpectraMax, M25, Molecular Devices Corp., CA) to determine cell viability.

A549 cells [2] = assay: Cytotoxicity assay (MTS), Example 2; details: 46.9 mM CaCl2 only or in the complex
Method: (§5) Cytoxicity Assay. Cytotoxicity of the complexes was determined by the CellTiter 96® Aqueous Cell Proliferation Assay kit (MTS assay) from Promega. A549 cells were plated on 96-well plates with approximately 8,000 cells/well and incubated in a humid 5% CO2 incubator at 37° C. After 18-24 hours incubation, the medium was removed and the cells were washed with 100 μl serum free medium. Cells were treated with the samples for 12-24 hours. The serum free medium were then removed and replaced with a mixture of 100 μl fresh culture medium and 20 μl MTS reagent solution. The cells were incubated for 1-4 hours at 37° C. in 5% CO2 incubator. Cell viability was assessed by measuring the absorbance at 490 nm by plate reader (SpectraMax M5) and expressed as the ratio of the A490 of cells treated with inhibitors over the control samples.

A549 cells [3] = assay: Cytotoxicity Assay (MTS Assay), Example 1 and CPPs; assay type: cell-based, human; details: A549 cells, MTS
Method: as §1, §2

A549-luc-C8 cells = assay: Assessment of cytotoxicity (MTS Assay), Example 4; assay type: cell-based, human; details: 24 hours, up to 5 mg/mL
Method: (§3) Cell culture. Culturing of human epithelial lung cell line A549-luc-C8, stably expressing luciferase, was performed according to the protocol provided by Caliper LifeSciences. A549-luc-C8 cells were grown in RPMI-1640 supplemented with 10% v/v heat inactivated FBS and 1% v/v Penicillin/streptomycin at 37° C. in a humidified air atmosphere containing 5% CO2.
(§4) Assessment of cytotoxicity (MTS Assay). […] A549-luc-C8 cells were grown as described in the transfection experiments. Cells were treated with the TAT, dTAT or PEI for approximately 24 hours. […] The cells were incubated for 3 hours at 37° C. in the 5% CO2 incubator. The absorbance of each well was then measured at 490 nm using a microtiter plate reader (SpectraMax, M25, Molecular Devices Corp., CA) to determine cell viability.

[4] = Assessment of cytotoxicity (MTS Assay), Example 4; assay type: cell-based, human; details: human, A549-luc-C8 cells, up to 5 mg/mL
Method: as §3, §4

Balb/C mice = details: 200 μL tail vein, Balb/C mouse
Method: Assessment of toxicity in vivo. Stock solutions of 0.3 M CaCl2, 10% Glucose, and 174 mg/ml dTAT were prepared. Non-silencing control siRNA (Dharmacon; Sense: […]tt; SEQ ID NO 16, Antisense: […]tt; SEQ ID NO 17) was dissolved in nuclease-free water (61.5 nM). The dTAT/siRNA complexes were prepared in 1.5 ml microcentrifuge tubes by mixing stock solutions (at concentrations indicated above). Formulation 1 used 15 μL of dTAT, 10 μL siRNA, 25 μL Glucose, and 5 μl CaCl2. Each ingredient was added to the previous component(s) and mixed by pipetting between each addition. Four of these formulas were individually prepared and kept at 4° C. for 20 minutes, then kept at room temperature for 5 minutes prior to injection. Remaining formulations (2-10) were prepared by a serial 1:2 dilution of stock siRNA solution and stock dTAT solution following the same experimental protocol as described above. The dTAT/siRNA complexes (volume=260 μl) were prepared for each individual animal and each 0.2 mL injection volume contained approximately the following amounts of dTAT peptide (mg/ml): 40, 20, 10, 5, 2.5, 1.25, 0.64, 0.32, 0.16, 0. Each formulation was administered via 200 μL injection into the tail vein of 12 week old male Balb/C mice (10 animals total).
In vivo dose escalating toxicity study. […] A dose escalating study was conducted in an effort to establish a lethal dose (LD50) for the dTAT peptide. For these studies, only a minimal amount of siRNA was included so that animal responses would be indicative of the toxicity of dTAT. Animals were administered the formulations via tail vein injection (200 μL) at doses up to 1,000 mg/kg of dTAT (Table 5).

A549 cells [5] = assay: In vitro cell transfection (pGL3 luciferase gene expression), Example 1 method; assay type: cell-based, human; details: 1 day after transfection, 75, 150, 300 mM CaCl2, varying N/P ratios
Method: Particles of nano-sized TAT-Ca complexes were synthesized by rapidly adding and stirring 10 μL of either (0.1 μg/μL) pDNA or (30-50 nM) siRNA to 15 μL (1 μg/μL) of the TAT solution. To this solution, 15 μL of CaCl2 of known molarity (e.g. 0.3 M) was added and mixed by vigorous pipetting followed by 20-30 minutes incubation at room temperature or at 4° C. prior to use.
Preparation of PEI/pDNA Complexes. Polyethylenimine-DNA Complexes were prepared by adding 10 μl (0.1 μg/μL) of pDNA solution to 15 μL (N/P ratio of 5 or 10) polyethylenimine (PEI) solution drop-wise while stirring. Complexes were incubated at room temperature for 20-30 minutes before dilution 1.7 times (15 μL) with the appropriate buffer (e.g. nuclease-free water or CaCl2). Complexes were freshly prepared before each individual experiment.
In Vitro Cell Transfection Studies. A549 cells were trypsinized, counted and diluted to a concentration of approximately 80,000 cells/mL. Then 0.1 mL of that dilution was added to each well of a 96-well plate and the cells were incubated in a humidified atmosphere of 5% CO2 incubator at 37° C. for 24 hours. Immediately before transfection, the cells were washed once with PBS and 100 μl sample (20% of complex to 80% of serum free cell culture medium) was added to each well. Cells were incubated with the complexes for 5 hours. The transfection agent was then removed by aspiration and 100 μL of fresh serum medium was added followed by further incubation. The Luciferase Assay System from Promega was used to determine gene expression following the manufacturer's recommended protocol. The light units were normalized against protein concentration in the cells extracts, which were measured using the Coomassie Plus™ Protein Assay (Thermo Scientific). The transfection results were expressed as Relative Light Units (RLU) per mg of cellular protein.

A549 cells [6] = tested on: A549 cells
Method: as §5

Compound: CSCC[C@H](NC(=O)[C@H](CCCCN)NC(=O)[C@H](Cc1c[nH]c2ccccc12)NC(=O)[C@H](CCCCN)NC(=O)[C@@H](N)CCCCN)C(=O)N[C@@H](CCCNC(=N)N)C(=O)N[C@@H](CCCNC(=N)N)C(=O)N[C@@H](CC(N)=O)C(=O)N[C@@H](CCC(N)=O)C(=O)N[C@@H](Cc1ccccc1)C(=O)N[C@@H](Cc1c[nH]c2ccccc12)C(=O)N[C@H](C(=O)N[C@@H](CCCCN)C(=O)N[C@H](C(=O)N[C@@H](CCC(N)=O)C(=O)N[C@@H](CCCNC(=N)N)C(=O)NCC(=O)O)C(C)C)C(C)C [Alp] (H-KKWKMRRNQFWVKVQRG-OH)
- IC50 at 24 h [1]: ~2140 µg/mL (≈ 942 µM)

Compound: [Ca+2].[Cl-].[Cl-] [CaCl2, Calcium chloride]
- cytotoxicity (A549 cells [2]): did not show cytotoxicity

Compound: N=C(N)NCCC[C@H](NC(=O)[C@H](CCCNC(=N)N)NC(=O)[C@H](CCCNC(=N)N)NC(=O)[C@H](CCC(N)=O)NC(=O)[C@H](CCCNC(=N)N)NC(=O)[C@H](CCCNC(=N)N)NC(=O)[C@H](CCCCN)NC(=O)[C@H](CCCCN)NC(=O)[C@@H](N)CCCNC(=N)N)C(N)=O [TAT]
- cytotoxic effects (A549 cells [3]): no evidence of cytotoxic effects
- cytotoxicity (A549-luc-C8 cells): almost no evidence of cytotoxicity

Compound: N=C(N)NCCC[C@H](NC(=O)[C@H](CCCCN)NC(=O)[C@H](CCCCN)NC(=O)[C@H](CCCNC(=N)N)NC(=O)[C@H](CCCNC(=N)N)NC(=O)[C@H](Cc1c[nH]cn1)NC(=O)[C@H](CCCNC(=N)N)NC(=O)[C@H](CCCNC(=N)N)NC(=O)[C@H](CCCNC(=N)N)NC(=O)[C@H](CCC(N)=O)NC(=O)[C@H](CCCNC(=N)N)NC(=O)[C@H](CCCNC(=N)N)NC(=O)[C@H](CCCCN)NC(=O)[C@H](CCCCN)NC(=O)[C@@H](N)CCCNC(=N)N)C(=O)O [dTAT] (H-RKKRRQRRRHRRKKR-OH)
- IC50 at 24 h [4]: ~4000 µg/mL (≈ 1820 µM)
- Toxicity/Behavioral Effects (Balb/C mice; dTAT 0.16 mg/mL, total dose 3.90 mg/Kg, siRNA 0.03 nM): Normal
- Toxicity/Behavioral Effects (Balb/C mice; dTAT 0.32 mg/mL, total dose 7.81 mg/Kg, siRNA 0.07 nM): Normal
- Toxicity/Behavioral Effects (Balb/C mice; dTAT 0.64 mg/mL, total dose 15.63 mg/Kg, siRNA 0.14 nM): Normal
- Toxicity/Behavioral Effects (Balb/C mice; dTAT 1.25 mg/mL, total dose 31.25 mg/Kg, siRNA 0.29 nM): Normal
- Toxicity/Behavioral Effects (Balb/C mice; dTAT 2.5 mg/mL, total dose 62.5 mg/Kg, siRNA 0.59 nM): Normal
- Toxicity/Behavioral Effects (Balb/C mice; dTAT 5 mg/mL, total dose 125 mg/Kg, siRNA 1.18 nM): Normal
- Toxicity/Behavioral Effects (Balb/C mice; dTAT 10 mg/mL, total dose 250 mg/Kg, siRNA 2.36 nM): Normal
- Toxicity/Behavioral Effects (Balb/C mice; dTAT 20 mg/mL, total dose 500 mg/Kg, siRNA 4.73 nM): Normal

Compound: H-RKKRRHRRR-NH2 [TAT2]
- added CaCl2 concentration at which complexes showed a higher level of gene expression (A549 cells [5]): 150 mM

Compound: H-RKKRRQHRRR-NH2 [TAT3]
- added CaCl2 concentration at which complexes showed a higher level of gene expression (A549 cells [5]): 150 mM

Compound: H-RKKRRQRRRHRRKKR-NH2 [TAT5]
- added CaCl2 concentration at which complexes showed a higher level of gene expression (A549 cells [5]): 300 mM

Compound: H-RRKRRQHRRR-NH2 [TAT4]
- added CaCl2 concentration at which complexes showed a higher level of gene expression (A549 cells [5]): 150 mM

Compound: protamine
- IC50 (cytotoxicity) (A549 cells [6]): 890 µg/mL
